As usually defined, the IC50 is the midpoint of a concentration-inhibition curve. A high value points to weaker potency.

Experimental findings from patent US9034303B2, “Neuroprotective and neuro-restorative iron chelators and monoamine oxidase inhibitors and uses thereof” (priority 2010, dated 2015) are described below.

One data set addresses rat brain MAO-B (Rattus norvegicus (Rat), UniProt P19643). Description: In vitro inhibition of rat brain MAO-B (14C-PEA substrate). It is filed as biochemical. The protocol: Rats are decapitated and the brains quickly taken into a weighted ice-cold sucrose buffer (0.32 M) and their weights determined. All subsequent procedures are performed at 0° C. The brains are homogenized in 0.32 M sucrose (one part tissue to 20 parts sucrose) in a Teflon glass homogenizer followed by the addition of sucrose buffer to a final concentration of 10% homogenate. The homogenates are centrifuged at 600 g for 15 min. The supernatant fractions are taken out and centrifuged at 4500 g for 30 min, the pellet diluted in 0.32 M sucrose buffer and kept frozen for later assaying of MAO.
MAO-A and MAO-B activities are determined in rat brain homogenate in vitro following incubation with varying concentrations of the test compounds.
The in vitro inhibitory activity of the compounds is tested against rat brain MAO-B. The test compounds are added to buffer containing 10^−7 M clorgylin and are incubated with the tissue homogenate for 30 or 60 min at 37° C. before addition of ^14C-PEA.
The test compound was added to a suitable dilution of the enzyme preparation (70 μg protein for MAO-B and 150 μg MAO-A assay) in 0.1 M phosphate buffer (pH 7.4). The mixture was incubated together with […], a specific inhibitor of MAO-B (for determination of MAO-A) or 0.05 M clorgylin, a specific inhibitor of MAO-A (for determination of MAO-B). Incubation was carried for 0.5 or 1 h at 37° C. before addition of ^14C-5-hydroxytryptamine binoxalate (5-HT) (100 or 400 μM) for determination of MAO-A, or ^14C-phenylethylamine (^14C-PEA) 100 or 400 μM for determination of MAO-B, and incubation continued for 30 min or 20 min, respectively. The reaction was stopped with 2 M ice-cold citric acid, and the metabolites were extracted and determined by liquid-scintillation counting in cpm units.
The reaction was stopped with 2 M ice-cold citric acid, and the metabolites were extracted with ethyl acetate and levels of radioactivity were determined by liquid-scintillation counting in CPM units. All assays were performed at least in duplicate and outcome was expressed as a mean±SEM. Data were analyzed by a Student's t test. Variations were considered statistically significant at a p value of 0.05.
MAO-A and MAO-B activity was measured using radioactive substrates. The substrate for MAO-A was 5 HT and for MAO-B was PEA. When measuring the activity of MAO-A, the MAO-B activity was inhibited with deprenyl and when measuring the activity of MAO-B the activity of MAO-A was inhibited with clorgylin. Blank samples were produced using TCP to inhibit both of the enzymes. The metabolites were extracted to toluene and read in a β-counter. The results are expressed in relative activity and normalized to the amount of protein in the tissue.

Another data set deals with SHSY-5Y cells. Description: Cytotoxicity in presence and absence of exogenous iron, SH-SY5Y. The format is cell-based, human. As for the experimental part: (§1) The potential of compound 3 to be toxic in the presence of free iron was also tested. The iron complexation method was based on the method of Leanderson and Tagesson (Carcinogenesis, 17, 545-550, 1996) with some modifications. Iron (III) was prepared from ferric ammonium citrate (Sigma, F5879) at 80 mM in sterile distilled water. Compound 3 was prepared at a 200 mM concentration in DMSO. Before each experiment, the freshly prepared iron (III) solution was diluted to 0.4 mM in PBS II (PBS containing 0.90 mM Ca^2+ and 0.49 mM Mg^2+). Compound 3 stock solutions were diluted to 2, 0.2, and 0.02 mM with PBS II. Equal volumes of the 0.4 mM iron (III) solution and compound 3 solutions were added together to prepare iron/test article complex solutions containing 1, 0.1, and 0.01 mM compound 3 and 0.2 mM iron (III). The compound 3 DMSO stock solution was diluted in PBS II at 1, 0.1, or 0.01 mM and used as compound 3 control without iron. An equal volume of the 0.4 mM iron (III) solution was diluted in PBS II to prepare a control containing only iron.
(§2) The medium was removed from the plated cells (both cell lines) and replaced with fresh medium (90 μL). Iron/compound 3 complex or compound 3 in PBS II without iron was added to cells in triplicate (10 μL) to final compound 3 concentrations of 100, 10, and 1 μM and an iron (III) concentration of 20 μM. Wells containing no cells were used as the background control. PBS II was run as vehicle control. Iron only was run at a final concentration of 20 μM.
(§3) Cell viability was determined as described above and cytotoxicity was compared between treatments with and without iron complexation.

The nature of data set [1]: Follow-up stability experiment at 37° C. in PBS. It is filed as physicochemical. The protocol: Using high pressure liquid chromatography (HPLC), the stability of each of the tested compounds was determined by following its respective chemical character over time in either phosphate buffered saline (PBS) and/or 0.85% saline solution (sodium chloride). In each case, 0.5 mM of the tested compound in PBS or saline solution was incubated at 25° C. or at 37° C. for 20 hours or, in some cases, up to two days (48 hours).
In addition, in a follow-up experiment the instability of M30, and the stability of compounds 3, 7 and 8 was also confirmed at 37° C. in PBS, Table 2, below.

The subject of the next data set is HepG2 cells. Description: Cytotoxicity in presence and absence of exogenous iron, HepG2. The format is cell-based, human. The protocol: as §1, §2, §3
For the next data set, the target named is MAO-B (Mus musculus (Mouse), UniProt Q8BW75). Kind of data set: In vivo MAO-B inhibition in mice after a single i.p. injection. To be noted: one hour later. The protocol: For the MAO-inhibition study, mice (6 mice in each group) were injected intraperitoneally (i.p.) with compound 3 at the dosage of 5 or 10 mg/kg; or with M30 at the dosage of 10 mg/kg. Control mice received saline (0.1 mL) i.p. One hour later the mice were killed by cervical dislocation, while striatum and small intestine were removed rapidly and frozen in liquid nitrogen for further analysis. FIGS. 3 and 4 show MAO-A/MAO-B in vivo activity of compound 3 compared to the activity of M30. FIG. 3 presents an MAO inhibition in striatum, and FIG. 4 presents an MAO inhibition in intestine. The percent inhibition was computed based on comparison to control animals.
MAO-B, sequence (Q8BW75 whole entry): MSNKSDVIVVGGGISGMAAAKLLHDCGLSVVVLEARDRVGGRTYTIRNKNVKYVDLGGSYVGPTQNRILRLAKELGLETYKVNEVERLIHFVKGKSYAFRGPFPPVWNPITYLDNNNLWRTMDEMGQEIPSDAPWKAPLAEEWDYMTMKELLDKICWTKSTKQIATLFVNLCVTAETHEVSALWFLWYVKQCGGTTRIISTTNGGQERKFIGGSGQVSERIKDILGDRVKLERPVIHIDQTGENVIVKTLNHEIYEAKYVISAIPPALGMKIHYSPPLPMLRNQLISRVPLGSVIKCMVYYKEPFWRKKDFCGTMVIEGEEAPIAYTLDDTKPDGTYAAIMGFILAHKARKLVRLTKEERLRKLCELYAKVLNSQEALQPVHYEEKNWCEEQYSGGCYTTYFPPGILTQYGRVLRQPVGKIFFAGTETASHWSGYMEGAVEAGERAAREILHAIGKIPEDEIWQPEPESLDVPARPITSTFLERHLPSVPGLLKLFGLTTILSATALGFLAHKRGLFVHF

The mark [2] stands for this setting: with iron (20 μM), compound 1 μM.
Where [3] appears, read: with iron (20 μM), compound 10 μM.
Where [4] appears, read: with iron (20 μM), compound 100 μM.

rat brain MAO-B, sequence (P19643 whole entry): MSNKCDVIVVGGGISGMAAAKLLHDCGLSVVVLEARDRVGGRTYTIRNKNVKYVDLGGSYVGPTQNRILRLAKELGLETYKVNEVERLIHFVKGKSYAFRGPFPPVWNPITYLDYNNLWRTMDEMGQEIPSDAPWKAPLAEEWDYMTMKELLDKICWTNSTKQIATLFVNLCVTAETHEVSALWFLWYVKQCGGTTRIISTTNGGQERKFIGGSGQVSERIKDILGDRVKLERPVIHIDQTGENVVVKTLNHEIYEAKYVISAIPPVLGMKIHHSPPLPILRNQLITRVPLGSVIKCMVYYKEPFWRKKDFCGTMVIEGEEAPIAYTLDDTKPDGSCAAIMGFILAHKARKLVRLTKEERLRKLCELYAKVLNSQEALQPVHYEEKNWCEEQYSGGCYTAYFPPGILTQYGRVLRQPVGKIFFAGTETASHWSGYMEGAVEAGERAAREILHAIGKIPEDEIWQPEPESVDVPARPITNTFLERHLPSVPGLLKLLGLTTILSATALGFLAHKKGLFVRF

On rat brain MAO-B, `C#CCN(C)CCc1ccc(O)c2ncccc12` [Compound 3, 5-[2-(methyl-2-propyn-1-ylamino)ethyl]-8-quinolinol] came in with a half-inhibitory concentration (IC50) of 10 to 30 nM. Also, at rat brain MAO-B (rat brain), the “Inhibition of rat brain MAO-B in vitro (in words)” value is on record as “potent inhibitors”. This molecule registered an SHSY-5Y cells alive in the data set with SHSY-5Y cells (with exogenous iron (20 μM), compound 1 μM) of 100%. The “SHSY-5Y cell death (%)” value was −1.0% in the data set on SHSY-5Y cells (setting [2]); 7.6% in the data set on SHSY-5Y cells (setting [3]); 90.3% in the data set with SHSY-5Y cells (setting [4]); 2.1% in the data set with SHSY-5Y cells (without iron, compound 1 μM); 0.8% in the data set with SHSY-5Y cells (without iron, compound 10 μM); 0.4% in the data set with SHSY-5Y cells (without iron, compound 100 μM). Moreover, the “Amount of compound remaining (%)” value in data set [1] (3 hours) was “≧100%”; in data set [1] (8 hours) it was 95.7%; in data set [1] (24 hours), “≧100%”; in data set [1] (48 hours), 87.2%. For the same molecule, the “HepG2 cell death (%)” value is given as 4.8% in the data set with HepG2 cells (setting [2]); 11.9% in the data set on HepG2 cells (setting [3]); 99.5% with HepG2 cells (setting [4]); −0.1% with HepG2 cells (without iron, compound 1 μM); −0.7% with HepG2 cells (without iron, compound 10 μM); −3.6% with HepG2 cells (without iron, compound 100 μM). In addition, the “MAO-B inhibition in striatum” value on MAO-B (5 or 10 mg/kg) is reported as “inhibited in a dose responsive fashion”. Besides, the “MAO-B inhibition in intestine” value at MAO-B (small intestine) was “Reduced inhibition in the intestinal tissue versus striatal tissue”.
